Test system: CCRF-CEM cells
Assay: Cell number and apoptosis assays
Format: cell-based, human
Settings: IRAK-1,-4 inhibitor 0-20 μM plus titrated drug, apoptosis by 7AAD at 48 hours, FIG. 23
Protocol: TLR ligands were diluted 2-fold. Cell lines (25-40×10^3/well) were cultured for 54 hours, whereas fresh patient-derived T-ALL cells (200×10^3/well) were cultured for 30 hours prior to adding [^3H]-thymidine for 18 hours. After this time point, cells were harvested with a Packard Filter-Mate-96 cell harvester (Perkin Elmer, Waltham, Mass., USA) and counted on Packard Top Count-NXT (Perkin Elmer, Waltham, Mass., USA). Results were expressed as average counts per minute (cpm). In some experiments CCRF-CEM cells were pre-treated with TLR1-TLR2 ligand (Pam3CysK4; 2.5 ug/ml) for 48 hrs, washed, and then cultured in the presence of varying concentrations of FBS. Forty-eight hours later, proliferation (±SD) was determined by ^3H-thymidine incorporation. Alternatively, apoptosis was measured by flow cytometry after staining cells with Annexin-V (BD Pharmingen, San Diego, Calif., USA) and propidium iodide (Sigma). Cell number was counted under microscopy by staining cells with trypan blue.
CCRF-CEM cells were treated with IRAK-1,-4 inhibitor for 24, 48, 72, and 96 hours.
The T-ALL cell line CCRF-CEM was cultured in the presence of 0, 1.2, 5, 10, and 20 μM IRAK-1,-4 inhibitor. (FIG. 23). To each concentration of IRAK-1,-4 inhibitor titrating doses of ABT-737 (1000→15 nM) vincristine, VS (10→0.1 nM), and paclitaxol, PAC (100→1.5 nM). […] Apoptosis was measure 48 hours later by staining cells with 7AAD and analyzed by flow cytometry.

Compound: CC[C@]1(O)C[C@H]2CN(CCc3c([nH]c4ccccc34)[C@@](C(=O)OC)(c3cc4c(cc3OC)N(C=O)[C@H]3[C@@](O)(C(=O)OC)[C@H](OC(C)=O)[C@]5(CC)C=CCN6CC[C@]43[C@@H]65)C2)C1 [vincristine]
- synergy with IRAK-1,-4 inhibitor: synergy

Source: patent publication US9464326B2, “Total and phosphorylated IL-1 receptor-associated kinase-1 and IL-1 receptor-associated kinase-4 as a biomarker for cancer progression and chemotherapy resistance” (University of Maryland, Baltimore, priority 2012, dated 2016)
